Assay results from US9618509B2 (priority 2007, dated 2017).

Tests used:
[1] = tested on: PBMC isolated from M. bovis-infected cattle; type: cell-based
M. bovis infected cattle = conditions: Mustafa et al., 2006, cited from earlier work
[2] = tested on: PBMC isolated from M. bovis-infected cattle; type: cell-based; remark: listed apart in the source

| Substance | intracellular IFN-γ production [1] | recognition / response in ELISPOT (cattle responding of the three tested) [2] | other results |
| --- | --- | --- | --- |
| VYLTAHNALG SSLHTAGVDL (VYLTAHNALGSSLHTAGVDL; fragment of full length protein) [SEQ ID NO: 9] | Markedly higher levels of IFN-γ |  |  |
| Rv3616c: product of the first gene of the Rv3616c-Rv3612c operon, a dominant mycobacterial antigen (Mustafa et al., 2006) |  |  | vaccinated individuals that respond (M. bovis infected cattle; BCG vaccinated): 40%; frequency of recognition in M. bovis infected cattle (M. bovis infected cattle): 84.6% |
| LGSSLHTAGV DLAKSLRIAA (LGSSLHTAGVDLAKSLRIAA; fragment of full length protein) [SEQ ID NO: 10] | Markedly higher levels of IFN-γ |  |  |
| AKIYSEADEA WRKAIDGLFT (AKIYSEADEAWRKAIDGLFT; fragment of full length protein) [SEQ ID NO: 13] | Markedly higher levels of IFN-γ | all three | average spot-forming units (SFU) [2]: 509 SFU per 10^6 PBMC |
| GVDLAKSLRI AAKIYSEADE (GVDLAKSLRIAAKIYSEADE; fragment of full length protein) [SEQ ID NO: 11] | no IFN-γ response | a response was recorded | dead cells in the sample [1]: > 64% |
| RIAAKIYSEA DEAWRKAIDG (RIAAKIYSEADEAWRKAIDG; fragment of full length protein) [SEQ ID NO: 12] | Markedly higher levels of IFN-γ |  |  |
